Measured values as given in patent US11573241B2, “Total cellular iron as a marker of cancer stem cells and uses thereof” (Institut National de la Sante et de la Recherche Medicale …, priority 2016, dated 2023).
Where a SMILES comes first, the peptide text is derived from it. The star is where a group is joined. Cbz = O=C(OCc1ccccc1)*; CH2F = FC*

Assays:
HMLER CD24^low cells [1] = test: Immunoblotting of iron homeostasis regulatory proteins; type: cell-based, human; settings: 24 h
[2] = test system: patient-derived xenografts (PDX 1 and 2); type: in vivo, NOD/SCID mice; settings: intra-peritoneal, 4 weeks
Excerpt: Patient derived xenografts (PDXs). PDXs were established as previously described in Charafe-Jauffret et al., Cancer Res. 73, 7290-7300 (2013) from tissue samples collected prospectively at the Institut Paoli-Calmettes (IPC). Samples of human origin and associated data were obtained from the IPC/CRCM Tumor Bank that operates under authorization #AC-2007-33 granted by the French Ministry of Higher Education and Research. Before scientific use of samples and data, patients were appropriately informed and asked to consent in writing, in compliance with French and European regulations. The project was approved by the IPC Institutional Review Board. Cells from 2 different patient-derived xenografts (PDX 1 and 2) were transplanted orthotopically into fat pads of 4-week-old female non-obese diabetic/severe combined immunodeficient (NOD/SCID) mice (NOD.CB17-Prkdcscid/J, Charles River France) after mechanical treatment and enzymatic digestion using collagenase/hyaluronidase (StemCell Technologies) to generate single-cell suspension suitable for implantation in vivo. PDXs were primarily established as previously described in Caraft-Jauffret et al., and evaluated for ALDEFLUOR-positive CSCs. We injected single cancer cells into fat pads of NOD/SCID mice and monitored tumor growth. When tumor size reached approximately 150 mm^3, Sal and AM5 treatments were performed as indicated above for FIGS. 14 and 15. Tumor growth was compared with that of docetaxel and placebo-treated controls. After 4 weeks of treatment, the animals were sacrificed and the proportion of ALDEFLUOR-positive CSCs was measured in each residual tumor. All animal studies were approved by the French Ministry of Higher Education and Research (authorization number D130554) and ethical committee (number 14), of Aix-Marseille Université. No randomization was used and experimenters were blinded to drug treatments and tissue analyses.
Aldefluor assay. The analysis was processed on single-cell suspension from the PDXs obtained as described above. The ALDEFLUOR Kit (Stemcell™ Technologies) was used to isolate the population with high aldehyde dehydrogenase enzymatic activity using an LSR2 cytometer (Becton Dickinson Biosciences), as previously described in Charafe-Jauffret et al. To eliminate cells of mouse origin from the PDXs, we used staining with an anti-H2Kd antibody (BD Biosciences, 1:200, 20 min on ice) followed by staining with a secondary antibody labeled with phycoerythrin (PE; Jackson Laboratories, 1:250, 20 min on ice).

[3] = test system: cells from treated PDX 1 and 2; test: Limiting dilution assay, tumor-seeding capacity (ELDA); type: in vivo, NOD/SCID mice; settings: re-implantation into secondary mice
Excerpt: Limiting dilution assay. Cells from 4-week treated mice were re-implanted into one to four secondary NOD/SCID mice with injection of 10, 50, 500 or 5000 cells for each treated tumor to functionally evaluate the proportion of residual CSCs in each treatment group (Unt., Doc, Sal, AM5) for the PDX 1 and 2. Each mouse that developed a tumor reaching a size of 10 mm was considered as a tumor-bearing mouse.
Estimation of number of CSCs in vivo. The number of mammary gland outgrowths obtained in a fat pad after cell re-implantation is currently used to evaluate the number of stem cells able to repopulate this fat pad. It is based on self-renewal and differentiation abilities, two hallmarks of stem cells. In the same manner, estimation of the number of CSCs can be obtained from tumor outgrowth data collected after limited dilution re-implantation of each group of treatments, based on tumor-initiating capacities of CSCs. For calculation, an online tool is available using Extreme Limiting Dilution Analysis (ELDA) (http://bioinf.wehi.edu.au/software/elda/) for limiting dilution analysis based on the Poisson single-hit model according to the number of outgrowths observed and the number of pat pad re-implanted for each cell dilution.

HMLER CD24^low cells [4] = test: Annexin V/PI assay; type: cell-based, human; settings: 48 h
Method: (§1) Annexin V/PI assay. Cells were treated as indicated. After treatment, cell death was quantified using Annexin V-FITC/Propidium Iodide (PI) assay according to the manufacturer's protocol (FITC Annexin V Apoptosis Detection Kit II, 556570, BD Pharmingen™) and analyzed by a LSRFortessa™ flow cytometer (BD Bioscience, San Jose, Calif.). The data were processed using Cell Quest software (BD Biosciences).

iCSCL-10A2 cells = test: Annexin V/PI assay; type: cell-based; settings: Sal or AM5 0.5 μM, 72 h
Method: as §1

HMLER cells = test: Flow cytometry of CD44 and CD24 expression after TGF beta; type: cell-based, human
Method: FIG. 11. […] Briefly, HMLER cells were treated as indicated with TGF beta in the presence or absence of transferrin. CD44 and CD24 expression were assessed by flow cytometry. CD44^+ indicates the percent of CD44^high/CD24^Low/− population gated.

MCF-7 cells [5] = test: Flow cytometry of CD44 and CD24 expression after OSM; type: cell-based, human; settings: OSM 100 ng/ml, 48 h
Method: FIG. 8. Knock down of ferritin expression interferes with the OSM-mediated induction of CD44^highCD24^low/− in MCF-7 cells. MCF-7 were transfected with siRNA control or siRNA specifically targeting ferritin mRNA (FTH1) during 48 h and then the cells were incubated with OSM (100 ng/ml) for 48 h. a. Analysis of CD44 and CD24 expression by flow cytometry. Left panel, CSC indicates the percent of CD44^high/CD24^Low or negative (Low/−) population gated. Right panels, histogram representations of CD44 or CD24 expression (dark grey), or by the isotype control (light grey). b. Graphs representing the percent mean of CD44^high/CD24^Low/− population gated. c. Graphs representing the mean fluorescence intensity (IF) of CD24 and CD44, respectively. d. Quantification of the ALDH+ population in MCF-7 cells treated as indicated above, and measured by flow cytometry. Bars and error bars correspond to mean values and s.d. of two biological replicates, respectively. **P<0.01, ns, not significant, Student's t-test.
Small interfering RNA transfection. Suitable small interfering RNAs (siRNA) were designed with the Qiagen RNA interference designer tool for specific down-regulation of FTH1. The sequence used for FTH1 was 5′-[…]-3′ (S100300251) targeting the sequence following 5′-[…]-3′ and a negative control siRNA for FTH1 (5′-[…]-3′, (S103089212). Subconfluent cells were transfected with siRNA in Opti-MEM using the Oligofectamine™ reagent (Invitrogen) for 48 h. Then, cells were treated with OSM (100 ng/mL for 48 h) prior to protein or RNA extraction and flow cytometry analysis for markers as indicated.

MCF-7 cells [6] = test: Immunoblotting of EMT markers and ferritin after OSM; type: cell-based, human; settings: OSM 100 ng/ml
Method: FIG. 7. Knock down of ferritin expression interferes with the OSM-mediated induction of EMT in MCF-7 cells. left, Immunoblotting showing levels of EMT markers in MCF-7 cells treated or not with 100 ng/ml of OSM for 72 h. right Immunoblotting showing levels of ferritin and fibronectin proteins in MCF-7 cells transfected with siRNA control (scramble) or siRNA targeting specifically ferritin mRNA (FTH1) during 48 h and then the cells were incubated with OSM (100 ng/ml) for 48 h. Beta-tubulin is used as loading control. MCF-7 were transfected.
Immunoblotting. Cells were treated as indicated, then washed twice with PBS and lysed with 2× Laemmli buffer. Cell extracts were heated at 95° C. for 5 min, sheared through a 26-gauge needle and quantified with a Nanodrop 2000 (Thermo Scientific). Protein lysates (˜100 μg) were resolved by SDS-PAGE electrophoresis and transferred onto PVDF membranes (Amersham). Membranes were blocked with 5% BSA, 0.1% Tween-20/TBS for 1 h. The blots were then probed with the relevant primary antibodies in 5% BSA, 0.1% Tween-20/TBS at 4° C. overnight with gentle agitation. Membranes were washed with 0.1% Tween-20/TBS for 30 min and were incubated with secondary antibodies for 1 h at RT. Antigens were detected by ECL (Amersham). Imaging was performed using a ChemiDoc™ XRS+ System (Biorad).

CCCNC(=O)[C@H]1O[C@@H]1C(=O)N[C@H](C(=O)N1CCC[C@H]1C(=O)O)[C@@H](C)CC [CA-074]
ferritin degradation under AM5, cathepsin B inhibition (HMLER CD24^low cells [1]): degradation was prevented

CC(=O)O[C@@]12CO[C@@H]1C[C@H](O)[C@@]1(C)C(=O)[C@H](O)C3=C(C)[C@@H](OC(=O)[C@H](O)[C@@H](NC(=O)OC(C)(C)C)c4ccccc4)C[C@@](O)([C@@H](OC(=O)c4ccccc4)[C@H]21)C3(C)C [Doc, docetaxel, reference compound]
tumor growth [2]: less effective | tumor-seeding capacity of tumor cells treated in vivo [3]: lower response than treatment with either AM5 or AM5+Doc

CC(=O)N[C@@H](CS)C(=O)O [NAC, N-acetyl-L-cysteine]
effect of co-treatment on cell death induced by Sal and AM5 (HMLER CD24^low cells [4]): partly prevented Sal and AM5 from killing these cells

COC(=O)C[C@H](NC(=O)[C@H](C)NC(=O)[C@@H](NC(=O)OCc1ccccc1)C(C)C)C(=O)CF [Z-VAD-FMK] (Cbz-Val-Ala-Asp(OMe)-CH2F)
effect of inhibitor on cell death induced by Sal or AM5 (iCSCL-10A2 cells): no effect on the cell death profiles

CCOC(=O)c1ccc(NC2CCCCC2)c(N)c1 [ferrostatin-1]
effect of inhibitor on cell death induced by Sal or AM5 (iCSCL-10A2 cells): partially prevented

CN1C(=O)C(Cc2c[nH]c3ccccc23)NC1=S (centres unmarked) [necrostatin-1]
effect of inhibitor on cell death induced by Sal or AM5 (iCSCL-10A2 cells): no effect on the cell death profiles

TGF-31: cytokine that increases the CD44^high/CD24^Low/− population in HMLER cells
percent of CD44^high/CD24^Low/− population (HMLER cells): 21%

Transferrin: iron carrier protein taken up via transferrin receptor
effect on TGF-beta-mediated induction of CD44^highCD24^Low/− (HMLER cells; with TGF beta): potentiates the TGF-beta-mediated induction

B1: OSM: cytokine oncostatin M, implicated in inducing EMT (protein, UniProt P13725 26-221, looked up)
Oncostatin-M: AAIGSCSKEYRVLLGQLQKQTDLMQDTSRLLDPYIRIQGLDVPKLREHCRERPGAFPSEETLRGLGRRGFLQTLNATLGCVLHRLADLEQRLPKAQDLERSGLNIEDLEKLQMARPNILGLRNNIYCMAQLLDNSDTAEPTKAGRGASQPPTPTPASDAFQRKLEGCRFLHGYHRFMHSVGRVFSKWGESPNRSRR
% of CD24^high population (MCF-7 cells [5]): remains unchanged | % of CD44^high population (MCF-7 cells [5]): 76% | % of CD44^highCD24^Low/− CSC population (MCF-7 cells [5]): 4.84% | ferritin protein level (MCF-7 cells [6]): increase in ferritin protein level | EMT marker protein levels (MCF-7 cells [6]; 72 h): increase of two EMT markers Fibronectin and Snail, and the decrease of E-cad protein levels
